Test results reported in ChEMBL document CHEMBL5034039, “Discovery of Novel, Orally Bioavailable Pyrimidine Ether-Based Inhibitors of ELOVL1” (J Med Chem, 2021).
Active and inactive are the calls of the source. The rule behind the calls is not given here.

Tests used:
[1] = target: T1, Very long chain fatty acid elongase 1 (Homo sapiens) (UniProt Q9BW60); experiment: Inhibition of ELOVL1 in HEK293 cells assessed as increase in C20:0 lipo phosphatidyl choline synthesis at 100 nM in presence of 13C-labeled acetate measured after 48 hrs by mass spectroscopic analysis; assay type: cell-based
T1 sequence (whole entry): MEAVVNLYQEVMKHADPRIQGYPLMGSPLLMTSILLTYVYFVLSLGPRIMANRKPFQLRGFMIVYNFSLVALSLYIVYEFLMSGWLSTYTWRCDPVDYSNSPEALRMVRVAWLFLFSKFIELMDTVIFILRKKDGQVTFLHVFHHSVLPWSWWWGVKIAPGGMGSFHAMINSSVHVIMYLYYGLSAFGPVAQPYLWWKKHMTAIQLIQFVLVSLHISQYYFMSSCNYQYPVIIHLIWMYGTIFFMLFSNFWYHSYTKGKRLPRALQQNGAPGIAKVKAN

[2] = Reduction in C26:0/C16:0 LPC level in wild type Sprague-Dawley rat blood at 10 mg/kg, po qd measured after 28 days relative to control; assay type: functional; design: scale not given: the % may be the effect or the level left; details: time 28 day
[3] = Inhibition of ELOVL7 in HEK293 cells by radiometric enzyme assay; assay type: cell-based, Homo sapiens
[4] = Reduction in C26:0/C16:0 LPC level in ABCD1 knock out mouse blood at >=8 mg/kg, po qd and measured after 1 week relative to control; assay type: functional; design: scale not given: the % may be the effect or the level left; details: dose mg/kg >=8; time 1 weeks
[5] = target: Kappa-type opioid receptor (Homo sapiens) (UniProt P41145); experiment: Inhibition of human kappa opioid receptor at 10 uM relative to control
Mus musculus [6] = experiment: Reduction in C26:0/C16:0 LPC level in ABCD1 knock out mouse blood at 1 to 32 mg/kg, po qd and measured after 1 week; assay type: functional, organism-based; details: dose 1-32 mg/kg, time 1.0 weeks
HEK293 = experiment: Cytotoxicity against HEK293 cells assessed as reduction in cell viability at 100 nM measured after 48 hrs; assay type: cell-based; details: human, hek293, 48 h, 0.1 µM
[7] = Ocular toxicity in rat assessed as corneal opacities at 10 to 50 mg/kg/day, po qd measured after 8 weeks by macroscopic analysis; assay type: organism-based; details: in vivo, 1344 h, dose 10-50 mg/kg/day
[8] = Permeability of compound across apical to basolateral side in MDCK-MDR1 cells; assay type: ADME, cell-based, Canis lupus familiaris; details: dog, read-out: permeability
[9] = target: Voltage-gated inwardly rectifying potassium channel KCNH2 (Homo sapiens, UniProt Q12809); experiment: Inhibition of human ERG
[10] = Reduction in C26:0/C16:0 LPC level in ABCD1 knock out mouse CNS at 32 mg/kg, po qd and measured after 3 months relative to control; assay type: functional; design: scale not given: the % may be the effect or the level left; details: 2190 h
[11] = Reduction in C26:0 LPC level in wild type mouse blood at 16 mg/kg, po qd and measured after 1 week relative to control; assay type: functional; design: scale not given: the % may be the effect or the level left; details: time 1 weeks
[12] = target: T2, Very long chain fatty acid elongase 6 (Homo sapiens) (UniProt Q9H5J4); experiment: Inhibition of ELOVL6 in HEK293 cells assessed as reduction of C18:0 lipo phosphatidyl choline synthesis at 100 nM in presence of 13C-labeled acetate measured after 48 hrs by mass spectroscopic analysis; assay type: cell-based
T2 sequence (whole entry): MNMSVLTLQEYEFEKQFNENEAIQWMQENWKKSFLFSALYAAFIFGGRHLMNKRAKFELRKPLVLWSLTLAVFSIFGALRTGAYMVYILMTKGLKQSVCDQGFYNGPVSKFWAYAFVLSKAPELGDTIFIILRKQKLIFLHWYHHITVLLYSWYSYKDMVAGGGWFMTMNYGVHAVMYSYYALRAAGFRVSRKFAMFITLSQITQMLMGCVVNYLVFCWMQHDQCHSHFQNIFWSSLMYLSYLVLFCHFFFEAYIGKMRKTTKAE

[13] = Intrinsic clearance in rat hepatocytes assessed per million cells; assay type: ADME, cell-based, Hepatocyte; details: read-out: CLH
[14] = Oral bioavailability in rat at 3 mg/kg; assay type: ADME, organism-based; details: in vivo
[15] = Half life in rat at 1 mg/kg, iv; assay type: ADME, organism-based; details: in vivo
Cynomolgus monkey [16] = experiment: Reduction in C26:0/C16:0 LPC level in wild type Cynomolgus monkey blood at 50 mg/kg, po qd measured after 14 days relative to control; assay type: functional, Macaca fascicularis; design: scale not given: the % may be the effect or the level left; details: time 14 day
Cynomolgus monkey [17] = experiment: Reduction in C26:0/C16:0 LPC level in wild type Cynomolgus monkey blood at 6.5 mg/kg, po qd measured after 14 days relative to control; assay type: functional, Macaca fascicularis; design: scale not given: the % may be the effect or the level left; details: time 14 day
[18] = target: T1, Very long chain fatty acid elongase 1 (Homo sapiens); experiment: Inhibition of ELOVL1 in HEK293 cells assessed as reduction of C26:0 lipo phosphatidyl choline synthesis at 100 nM in presence of 13C-labeled acetate measured after 48 hrs by mass spectroscopic analysis; assay type: cell-based
[19] = Lipophilicity, logD of the compound at pH 7.4; assay type: physicochemical; details: buffer
[20] = Reduction in C26:0/C16:0 LPC level in wild type Sprague-Dawley rat blood at 50 mg/kg, po qd measured after 28 days relative to control; assay type: functional; design: scale not given: the % may be the effect or the level left; details: time 28 day
[21] = Clearance in rat at 1 mg/kg, iv; assay type: ADME, organism-based; details: in vivo
[22] = target: T1, Very long chain fatty acid elongase 1 (Homo sapiens); experiment: Inhibition of ELOVL1 in HEK293 cells assessed as reduction of C24:0 lipo phosphatidyl choline synthesis at 100 nM in presence of 13C-labeled acetate measured after 48 hrs by mass spectroscopic analysis; assay type: cell-based
[23] = Toxicity in Cynomolgus monkey assessed as convulsion at >50 mg/kg/day, po qd measured after 14 days; assay type: organism-based, Macaca fascicularis; details: in vivo, 336 h, time 14 day
MDR1 = experiment: Efflux ratio of permeability in dog MDCK-MDR1 cells; assay type: ADME, cell-based, Canis lupus familiaris
[24] = target: T2, Very long chain fatty acid elongase 6 (Homo sapiens); experiment: Inhibition of ELOVL6 in HEK293 cells assessed as reduction of C16:0 lipo phosphatidyl choline synthesis at 100 nM in presence of 13C-labeled acetate measured after 48 hrs by mass spectroscopic analysis; assay type: cell-based
[25] = target: T3, Very long chain fatty acid elongase 1 (Homo sapiens, UniProt Q9BW60); experiment: Inhibition of ELOVL1 in HEK293 cells assessed as reduction of C26:0 lipo phosphatidyl choline synthesis; assay type: cell-based
T3 sequence (Q9BW60 whole entry): T1 sequence (whole entry)

[26] = target: 3',5'-cyclic phosphodiesterase (Homo sapiens) (UniProt O76074+P27815+Q14432+Q13956+P18545+O00408+Q13946+P54750+O76083+P35913+Q08499+Q07343+O43924+P16499+Q13370+P51160+O95263+Q9Y233+Q01064+Q08493+Q14123+O60658+Q9NP56); experiment: Inhibition of human PDE4 at 10 uM relative to control; assay type: protein assay
[27] = Reduction in C26:0 LPC level in wild type mouse blood at 32 mg/kg, po qd and measured after 1 week relative to control; assay type: functional; design: scale not given: the % may be the effect or the level left; details: time 1 weeks
[28] = target: T4, Very long chain fatty acid elongase 6 (Homo sapiens, UniProt Q9H5J4); experiment: Inhibition of ELOVL6 in HEK293 cells by radiometric enzyme assay; assay type: cell-based
T4 sequence (Q9H5J4 whole entry): T2 sequence (whole entry)

[29] = Inhibition of ELOVL4 in HEK293 cells by radiometric enzyme assay; assay type: cell-based, Homo sapiens
[30] = Reduction in C26:0 LPC level in wild type mouse blood at 4 mg/kg, po qd and measured after 1 week relative to control; assay type: functional; design: scale not given: the % may be the effect or the level left; details: time 1 weeks
Mus musculus [31] = experiment: Reduction in C26:0/C16:0 LPC level in ABCD1 knock out mouse CNS at 4 to 32 mg/kg, po qd and measured after 1 month; assay type: functional, organism-based; details: dose 4-32 mg/kg, time 1.0 months

Voltage-gated inwardly rectifying potassium channel KCNH2, sequence (Q12809 whole entry): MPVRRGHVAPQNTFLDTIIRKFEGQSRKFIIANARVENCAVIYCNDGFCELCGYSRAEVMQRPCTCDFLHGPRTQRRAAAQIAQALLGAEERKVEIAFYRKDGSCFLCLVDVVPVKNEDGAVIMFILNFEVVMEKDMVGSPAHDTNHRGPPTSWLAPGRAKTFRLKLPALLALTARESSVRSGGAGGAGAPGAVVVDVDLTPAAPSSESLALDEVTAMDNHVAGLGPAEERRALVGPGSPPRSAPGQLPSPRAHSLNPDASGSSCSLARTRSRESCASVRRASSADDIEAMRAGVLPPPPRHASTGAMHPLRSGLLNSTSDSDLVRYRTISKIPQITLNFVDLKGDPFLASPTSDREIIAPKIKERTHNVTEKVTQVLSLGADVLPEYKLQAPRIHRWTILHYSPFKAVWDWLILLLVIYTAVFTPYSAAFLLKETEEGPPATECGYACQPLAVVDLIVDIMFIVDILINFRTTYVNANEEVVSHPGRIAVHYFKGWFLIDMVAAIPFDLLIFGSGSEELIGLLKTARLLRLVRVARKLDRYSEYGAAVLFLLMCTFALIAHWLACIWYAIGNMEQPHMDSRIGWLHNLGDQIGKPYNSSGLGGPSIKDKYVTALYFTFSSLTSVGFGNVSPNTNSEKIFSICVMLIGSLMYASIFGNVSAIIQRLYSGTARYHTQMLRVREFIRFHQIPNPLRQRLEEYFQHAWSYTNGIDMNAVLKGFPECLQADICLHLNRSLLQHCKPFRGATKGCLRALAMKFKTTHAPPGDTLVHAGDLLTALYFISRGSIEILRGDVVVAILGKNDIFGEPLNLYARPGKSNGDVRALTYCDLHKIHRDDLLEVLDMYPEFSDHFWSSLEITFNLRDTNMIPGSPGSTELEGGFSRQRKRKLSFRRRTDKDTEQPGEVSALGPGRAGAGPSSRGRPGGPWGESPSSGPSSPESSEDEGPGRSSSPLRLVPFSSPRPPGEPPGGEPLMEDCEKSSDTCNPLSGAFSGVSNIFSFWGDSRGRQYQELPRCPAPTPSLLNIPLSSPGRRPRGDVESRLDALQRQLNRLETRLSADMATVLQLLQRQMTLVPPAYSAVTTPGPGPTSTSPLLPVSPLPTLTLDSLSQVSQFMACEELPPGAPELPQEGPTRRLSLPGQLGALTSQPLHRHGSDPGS
Kappa-type opioid receptor (Homo sapiens), sequence (P41145 whole entry): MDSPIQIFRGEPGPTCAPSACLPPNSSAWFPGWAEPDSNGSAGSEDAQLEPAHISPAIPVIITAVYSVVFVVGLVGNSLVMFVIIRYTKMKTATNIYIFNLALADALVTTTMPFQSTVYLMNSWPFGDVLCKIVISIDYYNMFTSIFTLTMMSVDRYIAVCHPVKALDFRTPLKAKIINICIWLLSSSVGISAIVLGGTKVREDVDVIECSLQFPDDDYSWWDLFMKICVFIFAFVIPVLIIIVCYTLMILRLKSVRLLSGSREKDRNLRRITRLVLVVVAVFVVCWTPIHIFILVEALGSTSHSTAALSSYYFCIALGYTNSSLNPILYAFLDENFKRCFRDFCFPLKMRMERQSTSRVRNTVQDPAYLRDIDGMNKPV

With `c1ccc([C@H]2CN(c3cc(O[C@H]4C[C@@H](n5cccn5)C4)ncn3)CCO2)cc1` the inhibition [1] was “Active”, the Activity [2] was 78% and the IC50 [3] was over 50 µM. For the same compound, the Activity [4] was 72%, the inhibition [5] was 54% and the Activity (Mus musculus [6]) was “Active”. The Activity (HEK293) was “Non-Toxic”, the Activity [7] was “Toxic” and the Papp A→B [8] was 17.4 ×10⁻⁶ cm/s. It also gave an IC50 [9] of over 30 µM, an Activity [10] of 27% and an Activity [11] of 70%. For the same compound, the inhibition [12] was “inactive”, the hepatocyte CLint [13] was 20 µL/min/1e6 cells and the bioavailability [14] was 45%. It also gave a half-life [15] of 3.1 h, an Activity (Cynomolgus monkey [16]) of 65% and an Activity (Cynomolgus monkey [17]) of 47%. The inhibition [18] was “Active”, the logD [19] was 3.3 and the Activity [20] was 79%. The clearance [21] was 20 mL/min/kg, the inhibition [22] was “Active” and the Activity [23] was “Toxic”. The efflux ratio (MDR1) was 1, the inhibition [24] was “inactive” and the IC50 [25] was 0.0004 µM. The inhibition [26] was 74%, the Activity [27] was 70% and the IC50 [28] was over 50 µM. The IC50 [29] was over 50 µM, the Activity [30] was 45% and the Activity (Mus musculus [31]) was “inactive”.
